# Data taken from patent US20250312473A1, “B7H3 ANTIBODY DRUG CONJUGATES” (BEONE MEDICINES I GMBH, priority 2022, published 2025).
# Experiments:
# [1] = system: H1975 xenografts (B7H3 IHC 3+); assay: ADC in vivo efficacy study, H1975 xenografts; set-up: species or system BALB/c Nude mice; conditions: study (5); 3 mpk (3 mg/kg) i.v. on day 1; day 31
# [2] = system: NCI-H358:MDA-MB-453-nanoLuc = 10:1; assay: ADC bystander killing, NCI-H358/MDA-MB-453 (nano-Luc) co-culture; type: cell-based, human; conditions: co-culture 10:1, 3D, 6 days
# Method: Method: MDA-MB-453-nanoLuc cell line construction PT67-nanoLuc cells were cultured, then the cell-culture medium (containing the virus (nano-Luc gene)) was collected and filtered. MDA-MB-453 cells were seed in 6-well plates at 1E5 cells/well, and incubated at 37° C., 5% CO2, overnight. The PT67-nanoLuc cell medium and 8 ug/mli polybrene was added. The infection was repeated 3 times, every one day. Then the MDA-MB-453-nanoLuc cells were cultured with the addition of 1 mg/ml Geneticin for 5 days. The MDA-MB-453-nanoLuc cells were collected, and Nano-Glo reagent (Promega: N1120) was added to test the nano-Luc transfection efficiency.
# Method: ADC Bystander Killing NCI-H358 & MDA-MB-453-nanoLuc (10:1), or MDA-MB-453-nanoLuc cels alone were seeded into 3D-96-well plates (Corning: 4520) at 80 μl/well, and Incubated at 37° C., 5% CO2, overnight. Fresh growth medium containing the varying concentrations of ADCs was added at 40 μl/well. The cells were incubated at 37° C., 5% CO2, 6 days. The 3D-plates were centrifuged at 1500 rpm, 25° C., […], then the supernatant was discarded.
# The […] cell viability was detected by Nano-Glo reagent (Promega: N1120), 150 μl/well. The 3D-plates were allowed to incubate at room temperature for 10 minutes to stabilize the luminescent signal. Then the plates were analyzed with a microplate reader.
# [3] = system: Capan-1; assay: ADC direct killing, 3D culture, Capan-1; type: cell-based, human; conditions: 6 days
# Method: Capan-1 is a cell line with epithelial morphology that was isolated from the pancreas of a person with pancreatic adenocarcinoma, and Capan-1 was purchased from ATCC. The base medium for Capan-1 is ATCC-formulated Iscove's Modified Dulbecco's Medium, Catalog No. 30-2005. To make the complete growth medium, fetal bovine serum was added to the base medium to a final concentration of 20% (Gibco, 10099-141C). The cell line was grown in a humidified 5% CO2 atmosphere at 37° C., and was regularly tested for the presence of mycoplasma with MycoAlert™ PLUS Mycoplasma Detection Kit (Lonza, LT07-710).
# (§1) NCI-H1650, NCI-H1048, MDA-MB-453 (2E3/well) or Capan-1 (4E3/well) cells were seeded into 3D-96-well plates (Corning: 4520) at 80 μl/well and incubated at 37° C., 5% CO2, overnight.
# (§2) Fresh growth medium containing the varying concentrations of ADCs was added at 40 µl/well. The cells were incubated at 37° C., 5% CO2, 6 days.
# (§3) The cell viability was detected by 3D reagent (Promega, G9683), […]. The plates were allowed to incubate at room temperature for 30 minutes to stabilize the luminescent signal. Then the plates were analyzed with a microplate reader.
# [4] = system: NCI-H1650; assay: ADC direct killing, 3D culture, NCI-H1650; type: cell-based, human; conditions: 6 days
# Method: (§4) The base medium for NCI-H1650 is ATCC-formulated RPMI-1640 Medium, ATCC 30-2001. To make the complete growth medium, fetal bovine serum was added to the base medium to a final concentration of 10% (Gibco, 10099-141C). The cell line was grown in a humidified 5% CO2 atmosphere at 37° C., and was regularly tested for the presence of mycoplasma with MycoAlert™ PLUS Mycoplasma Detection Kit (Lonza, LT07-710).
# as §1, §2, §3
# [5] = HIC methods to evaluate ADC hydrophobicity (DAR8 HIC retention time); type: physicochemical; conditions: HIC Method 2
# Method: HPLC analysis was carried out under the following measurement conditions: • HPLC system: Waters ACQUITY ARC HPLC System • Detector: measurement wavelength: 280 nm • Column: MABPac HIC-10, 5 μm, 4.6×10 mm (Thermo) • Column temperature: 25° C. • Mobile phase A: 1.5 M ammonium sulfate, 50 mM sodium phosphate, pH 7.0 • Mobile phase B: 50 mM sodium phosphate, pH 7.0 • Gradient program: 20% B—20% B (0 min-1 min), 0% B-0% B (1 min-35 min), 20% B-20% B (35 min-40 min) • Flow rate: 0.5 mL/min
# Sample preparation: The sample was diluted with initial mobile phase to 0.5 mg/mL.
# DAR8 HIC retention time (min) is an indication of the relative hydrophobicity of an ADC. ADCs with higher DAR8 HIC retention have a higher hydrophobic property.
# [6] = system: NCI-H1048; assay: ADC direct killing, 3D culture, NCI-H1048; type: cell-based, human; conditions: 6 days
# Method: as §4, with “NCI-H1048” for “NCI-H1650”, “DMEM:F12 Medium Catalog No. 30-2006.” for “RPMI-1640 Medium, ATCC 30-2001.”
# as §1, §2, §3
# [7] = system: H1650 xenografts (B7H3 IHC 3+); assay: ADC in vivo efficacy study, H1650 xenografts; set-up: species or system BALB/c Nude mice; conditions: for TGI (%) at T 28: day 28; for TGI (%) at T 30: day 30
# Method: Female BALB/c Nude mice were subcutaneously implanted with 3×10^6 H1650 cells per 200 μL PBS/matrigel in the right flank. After inoculation, tumor volumes were determined twice weekly in two dimensions using a caliper, and were expressed in mm^3 using the formula: V=0.5(a×b^2) where a and b are the long and short dimensions of the tumor, respectively.
# Partial regression (PR) was defined as tumor volume smaller than 50% of the starting tumor volume on the first day of dosing in three consecutive measurements and complete regression (CR) was defined as tumor volume less than 14 mm^3 in three consecutive measurements. Data is presented as mean tumor volume±standard error of the mean (SEM). Tumor growth inhibition (TGI) is calculated using formula (TGI):
# [formula] • treated t=treated tumor volume at time t • treated t0=treated tumor volume at time 0 • placebo t=placebo tumor volume at time t • placebo t0=placebo tumor volume at time 0
substance,measurement,setting,value
"ADC3-A: ""ADC3-A is the biosimilar ADC of DS7300a (benchmark)""; antibody MABX-9001a, average DAR 3.99",TGI (%) at T 31,[1],56%
same,EC50,[2]; Table 11,9.8 nM
same,Emax (%) bystander killing,[2]; Table 11,89.1%
same,EC50,[2]; Table 12,9.8 nM
same,Emax (%) bystander killing,[2]; Table 12,89.1%
same,EC50,[2]; Table 13,5.4 nM
same,Emax (%) bystander killing,[2]; Table 13,82.3%
same,EC50,[2]; Table 14,13 nM
same,Emax (%) bystander killing,[2]; Table 14,89.5%
same,EC50,"[3]; Table 6, Capan-1 (Low)",4 nM
same,Emax (%),"[3]; Table 6, Capan-1 (Low)",66.7%
same,EC50,"[3]; Table 7, Capan-1 (Low)",4 nM
same,Emax (%),"[3]; Table 7, Capan-1 (Low)",66.7%
same,EC50,"[3]; Table 8, Capan-1 (Low)",1.7 nM
same,Emax (%),"[3]; Table 8, Capan-1 (Low)",71.4%
same,EC50,"[4]; Table 6, NCI-H1650 (High)",8.2 nM
same,Emax (%),"[4]; Table 6, NCI-H1650 (High)",54.2%
same,EC50,"[4]; Table 7, NCI-H1650 (High)",8.2 nM
same,Emax (%),"[4]; Table 7, NCI-H1650 (High)",54.2%
same,EC50,"[4]; Table 8, NCI-H1650 (High)",10.9 nM
same,Emax (%),"[4]; Table 8, NCI-H1650 (High)",33.1%
same,EC50,"[4]; Table 9, NCI-H1650 (High)",5.7 nM
same,Emax (%),"[4]; Table 9, NCI-H1650 (High)",62.0%
same,EC50,"[4]; Table 10, NCI-H1650 (High)",7.4 nM
same,Emax (%),"[4]; Table 10, NCI-H1650 (High)",61.1%
same,HIC DAR8 RT (min) Method 2,[5],21.817 (Meth - od 2) min
same,EC50,"[6]; Table 9, NCI-H1048 (Low)",1.2 nM
same,Emax (%),"[6]; Table 9, NCI-H1048 (Low)",98.9%
same,EC50,"[6]; Table 10, NCI-H1048 (Low)",2.6 nM
same,Emax (%),"[6]; Table 10, NCI-H1048 (Low)",99.0%
same,TGI (%) at T 28,"[7]; study (1), 3 mpk (3 mg/kg) i.v. on day 1",53%
same,TGI (%) at T 28,"[7]; study (1), 10 mpk (10 mg/kg) i.v. on day 1",86%
same,TGI (%) at T 30,"[7]; study (2), 10 mpk (10 mg/kg) i.v. on day 1",85%
same,TGI (%) at T 30,"[7]; study (3), 10 mpk (10 mg/kg) i.v. on day 1",85%
same,TGI (%) at T 28,"[7]; study (4), 10 mpk (10 mg/kg) i.v. on day 1",70%
